The source made the active and inactive calls. The rule behind the calls is not given here.
Tested on: HEK-293T NF-kB luciferase reporter, luminescence counterscreen
Experiment: NF-kB reporter suppression in HEK-293T cells – luminescence, B-cell screen hits, counter-screen for BCR NF-kB inhibitor project, dose response (AID 489022)

SMILES | IC50
Cc1ccc(/C=C2\SC(=S)N(CCCC(=O)NC3CCCC3)C2=O)cc1 | > 80 µM (inactive)
C/C(=N\Nc1nc(Nc2ccccc2)nc(N2CCOCC2)n1)c1cccs1 | > 80 µM (inactive)
Cc1ccc(Nc2nc(N3CCOCC3)nc(N3CCOCC3)n2)cc1C | 51.4 µM (inactive)
CC(C)C(=O)Nc1ccc(NC(=O)c2ccc3c(c2)OCO3)cc1 | > 80 µM (inactive)
CSc1ccc(-c2nc(CSCC(=O)NC3CC3)c(C)o2)cc1 | 37.7 µM (inactive)
Cc1c(CCC(=O)O)c(=O)oc2cc3oc4c(c3cc12)CCCC4 | 5.89 µM
CCN(CC(=O)Nc1c(F)cccc1F)C(=O)c1cc(S(=O)(=O)N(C)C)ccc1N1CCCC1 | > 80 µM (inactive)
Cc1cc(-c2cc(C(=O)NCc3ccccc3)on2)nc(S(C)(=O)=O)n1 | 15.6 µM
CCc1cccc(NC(=O)c2ccc(CNc3c(N4CCCC4)c(=O)c3=O)cc2)c1 | > 80 µM (inactive)
CCC(C)N1C(=O)/C(=C/c2c(NCCCOC(C)C)nc3c(C)cccn3c2=O)SC1=S (stereo not drawn) | > 80 µM (inactive)
O=C(NCCCN1CCOCC1)c1cc(-c2ccc(Br)cc2)on1 | 43.7 µM (inactive)
O=C(CN1C(=O)c2ccccc2S1(=O)=O)c1ccccc1Cl | 7 µM
COc1cc(-c2nc3n(n2)C(c2ccc(F)cc2)C2=C(CCCC2=O)N3)cc(OC)c1OC (stereo not drawn) | 30.4 µM (inactive)
COc1ccc(/C=N\NC(=O)c2sccc2C)cc1Cn1nc(C)cc1C | 25.4 µM (inactive)
CCn1c(=O)cc(SCC(=O)N2CCC3(CC2)OCCO3)c2ccccc21 | > 80 µM (inactive)
CCc1ccc(/C=C2/SC(=S)N(CCC(=O)Nc3cccc(C(=O)O)c3)C2=O)cc1 | > 80 µM (inactive)
COc1ccccc1/C=C1\SC(=S)N(CCC(=O)Nc2nnc(C)s2)C1=O | > 80 µM (inactive)
Cc1ccc(/C=C2/SC(=S)N(CCCC(=O)Nc3ccc(O)cc3)C2=O)cc1 | > 80 µM (inactive)
Cn1c(=O)cc(OCCCC(=O)N2CCCCC2)c2ccccc21 | 60.2 µM (inactive)
CCOC(=O)/C=C(\C)Sc1cc(=O)oc2ccccc12 | 10.5 µM
COc1ccc(/C=C2\SC(=S)N(CCC(=O)Nc3ccc(O)cc3)C2=O)cc1 | > 80 µM (inactive)
CC(=O)Nc1ccc(Nc2nc(-c3sc(NC(C)=O)nc3C)cs2)cc1 | 47.1 µM (inactive)
COc1ccc(-n2ncc3c(N4CCC(C(N)=O)CC4)ncnc32)cc1 | > 80 µM (inactive)
CN1C(=O)c2cccc3c(S(=O)(=O)Nc4ccccc4F)ccc1c23 | 69.7 µM (inactive)
COc1ccc(NC(=O)c2cc(-c3ccccn3)nc3ccccc23)cc1S(=O)(=O)N(C)C | 51.4 µM (inactive)

SMILES | IC50
Cc1ccc(-c2c[n+]3c(n2-c2ccccc2)SCC3)cc1 | 7.4 µM
Cc1ccc(/C=C2\SC(=S)N(CCCC(=O)Nc3cccnc3)C2=O)cc1 | 51.8 µM (inactive)
C=CCOc1ccc(NC(=O)C(=O)NCCCn2ccnc2)cc1 | > 80 µM (inactive)
CCSc1ncc(Cl)c(C(=O)Nc2sc3c(c2C(=O)NCc2cccnc2)CCCC3)n1 | > 80 µM (inactive)
COc1cc2c3c(c1)c(N=NC(N)=S)c(O)n3C(C)(C)C=C2C | > 80 µM (inactive)
O=C(O)CCSc1ncnc2sc(-c3ccccc3)cc12 | 11.8 µM
COc1cc(NC(=O)c2ccco2)c(OC)cc1NC(=O)c1cc(OC)c(OC)c(OC)c1 | 17.7 µM
O=C(CCCN1C(=O)/C(=C/c2ccccc2Cl)SC1=S)NNC(=O)c1ccccc1 | 21.8 µM (inactive)
CC(C)(C)c1ccc(-c2noc(CCC(=O)Nc3cccnc3)n2)cc1 | 0.55 µM
CC(C)Cn1c([N+](=O)[O-])nc2c1c(=O)[nH]c(=O)n2C | 37 µM (inactive)
Cn1c(=O)cc(OCCCC(=O)NC2CCCC2)c2ccccc21 | 46 µM (inactive)
COc1ccc(-c2ccc(OC)c([C@H]3[C@H]4C=CC[C@@H](C)[C@@H]4C(=O)N3Cc3ccccc3)c2)cc1C | > 80 µM (inactive)
CC(=O)C1=NN(c2ccccc2)C(c2cccs2)N1c1ccc(N(C)C)cc1 (stereo not drawn) | 5.42 µM
COc1ccc(NS(=O)(=O)c2ccc(-c3coc(C)n3)cc2)cc1OC | 0.66 µM
CSC1CCCCC1(O)CSc1nc2c(cc1C#N)CCCC2 (stereo not drawn) | > 80 µM (inactive)
CCn1c(=S)[nH]c2cc(S(=O)(=O)N3CCCCC3)ccc21 | 33.9 µM (inactive)
CCCc1nc2c(C)cc(-c3nc4ccccc4n3C)cc2n1Cc1ccc(-c2ccccc2C(=O)O)cc1 | > 80 µM (inactive)
CCOc1ccc(-n2c(-c3ccccc3)c[n+]3c2CCCCC3)cc1 | 1.4 µM
Cc1cccc(C(=O)Nc2ccc(CC(=O)O)cc2)c1 | 45.2 µM (inactive)
Cc1cc(C)cc(NC(=O)Nc2ccc(NC(=O)c3ccccc3O)cc2)c1 | > 80 µM (inactive)
O=C(Nc1cccc(Br)c1)c1ccc2c(c1)SC1=NS(=O)(=O)CCN12 | 10.5 µM
Cc1cc(OCC(=O)N2CCC(C(N)=O)CC2)c2c3c(c(=O)oc2c1)CCCC3 | > 80 µM (inactive)
N=c1ccn(Cc2ccccc2Cl)cc1 | 21.3 µM (inactive)
CC(C)(C)c1ccc(-c2noc(CCC(=O)NCc3ccco3)n2)cc1 | 0.49 µM
COc1ccc(-c2noc(N3CCC(C(=O)Nc4cccc(OC)c4)CC3)n2)cc1 | 17.9 µM

SMILES | IC50
COc1cc(/C=N/Nc2nc(Nc3ccccc3)nc(N3CCOCC3)n2)ccc1OC(=O)c1ccco1 | > 80 µM (inactive)
COc1ccc(/C=C2\SC(=S)N(CCC(=O)Nc3ccc(C(=O)O)cc3)C2=O)cc1 | > 80 µM (inactive)
Cc1ccc(S(=O)(=O)Nc2ccc3c(c2)n(C)c(=O)n3C)cc1 | 65.2 µM (inactive)
Cc1ccc(S(=O)(=O)N2CCCCC2CCNC(=O)C(=O)NCc2ccncc2)cc1 (stereo not drawn) | 38.4 µM (inactive)
Cc1ccc(-c2nc(C(=O)NCC3CCCO3)cc3c2[nH]c2ccccc23)cc1 (stereo not drawn) | 8.81 µM
COC(=O)C1=C(c2ccc(-c3ccccc3)c(F)c2)C[C@@H]2CC[C@H]1N2C(=O)N1CCCC1 | 1.83 µM
CCc1ccc(/C=C2\SC(=S)N(CCC(=O)Nc3cc(C)on3)C2=O)cc1 | > 80 µM (inactive)
Cc1ccc(-c2cn(-c3ccccc3)c3[n+]2CCCS3)cc1 | 4.88 µM
COc1ccc(-c2csc3nc(-c4cccnc4)nc(N4CCC(C(N)=O)CC4)c23)cc1OC | 9.06 µM
COc1cccc(-c2noc(CCC(=O)NCCc3ccccc3)n2)c1 | 75.4 µM (inactive)
Cc1cc(C)c2nc(NC(=O)[C@@H](NC(=O)c3cccc(S(=O)(=O)N4CCOCC4)c3)C(C)C)sc2c1 | > 80 µM (inactive)
CC(C)c1ccc(/C=C2\SC(=S)N(CCC(=O)NCCCn3ccnc3)C2=O)cc1 | 50.2 µM (inactive)
O=C(CCCN1C(=O)/C(=C/c2ccccc2Cl)SC1=S)NNC(=O)c1ccncc1 | 12.7 µM
O=C(CN1C(=O)c2ccccc2S1(=O)=O)c1ccc(Cl)cc1Cl | 17.9 µM
COc1cccc(/C=C2/SC(=S)N(CCCC(=O)Nc3ccc(O)cc3)C2=O)c1 | 50.6 µM (inactive)
COc1ccc(-n2c(-c3ccc(Br)cc3)c[n+]3c2CCc2ccccc2-3)cc1 | 3.96 µM
COc1ccc(Cc2nc(-c3ccc(NC(=O)c4cccnc4)cc3)no2)cc1 | > 80 µM (inactive)
COC(=O)c1[nH]c2ccc(C)cc2c1NC(=O)Nc1ccccc1OC | > 80 µM (inactive)
CCOc1ccc(NC(=O)CCCc2cc(-c3ccc(OCC)cc3)on2)cc1 | > 80 µM (inactive)
CCCCn1c2c(c(=N)c3ccccc31)CCC2 | 40.8 µM (inactive)
Cc1csc(NC(=O)/C=C/c2ccc3c(c2)OCO3)n1 | > 80 µM (inactive)
CC(C)(C)c1ccc(-c2noc(CCC(=O)N3CCOCC3)n2)cc1 | 35 µM (inactive)
NNC(=O)COc1ccc(-c2nccc(-c3ccc(F)cc3)n2)cc1 | 42.3 µM (inactive)
CC1CCN(C(=O)CCCOc2cc(=O)n(C)c3ccccc23)CC1 | > 80 µM (inactive)
COc1ccc(/C=C2/SC(=S)N(CCC(=O)O)C2=O)cc1 | 24.3 µM (inactive)

SMILES | IC50
Cc1c(CCC(=O)N2CCC(C(=O)O)CC2)c(=O)oc2cc3oc4c(c3cc12)CCCC4 | 12.8 µM
COc1ccc(-c2nc(CSCC(=O)NCc3ccco3)c(C)o2)cc1 | 38.5 µM (inactive)
CCN1CCN(C(=O)CSc2cc(=O)n(CC)c3ccccc23)CC1 | > 80 µM (inactive)
CCn1c(=O)cc(SCC(=O)N2CCCCC2)c2ccccc21 | > 80 µM (inactive)
O=C(O)CCn1c(O)c(C=C2N=c3ccccc3=N2)sc1=S | 70.8 µM (inactive)
O=C(O)COc1ccc(-c2nccc(-c3ccccn3)n2)cc1 | 13.3 µM
O=C(Nc1cccc(Oc2ccc3c(c2)C(=O)NC3=O)c1)c1cccs1 | 28.8 µM (inactive)
OCCN1CCN(C(=S)c2ccc(-c3ccccc3)cc2)CC1 | 31.6 µM (inactive)
O=S(=O)(c1cnc(Cl)c(Cl)c1)N1CCCc2ccccc21 | > 80 µM (inactive)
CCOC(=O)c1nn(-c2ccccc2)c(C#N)c1NC(=O)c1nn(CC)cc1Br | > 80 µM (inactive)
O=C(Nc1ccccc1C(=O)Nc1nnc(C(F)(F)F)s1)c1ccccc1 | 4.36 µM
C(=N\Nc1nc(Nc2ccccc2)nc(N2CCOCC2)n1)/c1c[nH]c2ccccc12 | 53 µM (inactive)
CCN1C(=O)Nc2cccc3cccc1c23 | 17.8 µM
CCN1C(=O)c2cccc3c(S(=O)(=O)Nc4ccccc4)ccc1c23 | 18.7 µM
CCN(CC)S(=O)(=O)c1ccc(N2CCOCC2)c(NC(=O)c2[nH]c(C)c(C(C)=O)c2C)c1 | 5.92 µM
CCOC(=O)Cc1ccc(NC(=O)c2ccc(C(C)(C)C)cc2)cc1 | 1.04 µM
COC(=O)c1c(NC(=O)c2cccc([N+](=O)[O-])c2)sc(C(N)=O)c1C | > 80 µM (inactive)
CC(C)(O)/C=C/C(=O)[C@](C)(O)C1[C@H](O)C[C@@]2(C)C3CC=C4C(C[C@H](O)[C@@H](O)C4(C)C)[C@]3(C)C(=O)C[C@]12C (stereo partly drawn) | 65.8 µM (inactive)
Cc1c(CC(=O)NCCCC(=O)O)c(=O)oc2cc3c(cc12)CCC(C)(C)O3 | 3.39 µM
c1ccc(CCNc2ncnc3ccccc23)cc1 | 0.45 µM
NC(=O)C1CCN(C(=O)COc2ccc3ccccc3c2Br)CC1 | > 80 µM (inactive)
Cc1ccc(/C=C2\SC(=S)N(CCC(=O)NNC(=O)c3ccncc3)C2=O)cc1 | > 80 µM (inactive)
Cc1cccn2c(=O)c3cc(C(=O)NC4CCCCC4)c(=N)n(CCN4CCOCC4)c3nc12 | > 80 µM (inactive)
